Key:
Assay in all cases: CD
[1] = tested on: L1 (random DNA sequence) (DNA, single strand) GAGAGTCAATCGTCTATTCGCATGAGAATTCCATTCACCGTAAG; details: 300 mM NaCl, 5 mM MgCl2; 20 mM Tris-HCl; 5 μM DNA, 1 mM ATP; nonspecific peak shift 277 to 280 nm
[2] = tested on: B1 (DNA, aptamer) GAGAGTCAATCGACCTGGGGGAGTATTGCGGAGGAAGGTACGCATTCGCTATA; details: 300 mM NaCl, 5 mM MgCl2; 20 mM Tris-HCl; 5 μM DNA, 1 mM ATP, room temperature; peak shift 272 to 277 nm
[3] = tested on: B-linker (B1/B2 assembly) (DNA, aptamer) GAGAGTCAATCGACCTGGGGGAGTATTGCGGAGGAAGGTACGCATTCGCTATA/GAGAGTCAATCGTATAGCGAATGCGT; details: 300 mM NaCl, 5 mM MgCl2; 20 mM Tris-HCl; 5 μM DNA, 1 mM ATP; peak shift 273 to 279 nm; CD alone not conclusive

binding [1]: no
binding [2]: yes
binding [3]: yes
Structure (SMILES): Nc1ncnc2c1ncn2[C@@H]1O[C@H](COP(=O)(O)OP(=O)(O)OP(=O)(O)O)[C@@H](O)[C@H]1O
